pEC50, pKi: −log10 of the molar value. Active and inactive are the calls of the source. No cut-off for these calls is given here.
Key:
[1] = biological target: Cyclin-dependent kinase 2/cyclin E1 (Homo sapiens, UniProt P24941); experiment: Inhibition of full length N-terminal GST-tagged human CDK2 (1 to 298 residues)/cyclin E1 (1 to 410 residues) expressed in Sf21 cells using histone H1 as substrate preincubated for 10 mins followed by substrate and ATP addition and measured after 60 mins by ADP-Glo reagent based microplate reader assay
[2] = biological target: Cyclin-dependent kinase 5/CDK5 activator 1 (Homo sapiens, UniProt Q00535); experiment: Inhibition of human CDK5/p25NCK using histone H1 as substrate preincubated for 10 mins followed by substrate and ATP addition and measured after 60 mins by ADP-Glo reagent based microplate reader assay; format: protein-complex assay
Cyclin-dependent kinase 5/CDK5 activator 1, sequence (Q00535 whole entry): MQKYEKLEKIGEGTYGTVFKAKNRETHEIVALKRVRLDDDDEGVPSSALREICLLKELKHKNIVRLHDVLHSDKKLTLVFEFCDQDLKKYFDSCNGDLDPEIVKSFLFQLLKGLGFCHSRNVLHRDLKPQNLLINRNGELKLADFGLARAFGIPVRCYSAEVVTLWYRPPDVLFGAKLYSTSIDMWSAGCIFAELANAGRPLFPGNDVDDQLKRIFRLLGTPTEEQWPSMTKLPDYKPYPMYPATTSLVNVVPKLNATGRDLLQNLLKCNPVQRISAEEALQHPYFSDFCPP
Cyclin-dependent kinase 5/CDK5 activator 1, sequence (Q15078 whole entry, further chain): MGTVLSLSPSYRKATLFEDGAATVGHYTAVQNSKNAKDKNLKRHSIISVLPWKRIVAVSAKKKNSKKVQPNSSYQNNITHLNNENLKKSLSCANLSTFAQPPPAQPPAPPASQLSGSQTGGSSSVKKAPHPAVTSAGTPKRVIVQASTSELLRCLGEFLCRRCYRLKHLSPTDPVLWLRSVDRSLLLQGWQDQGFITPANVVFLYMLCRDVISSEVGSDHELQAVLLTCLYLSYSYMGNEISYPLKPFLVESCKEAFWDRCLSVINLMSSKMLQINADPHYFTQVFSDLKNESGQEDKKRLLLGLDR

CDK7/Cyclin H/MNAT1 = CDK7/Cyclin H/MNAT1 (Homo sapiens, UniProt P50613); experiment: (§1) Inhibition of recombinant human His-tagged CDK7/cyclin H/MNAT1 expressed in baculovirus expression system using histone H1 as substrate preincubated for 10 mins followed by substrate and ATP addition and measured after 60 mins by ADP-Glo reagent based microplate reader assay
CDK7/Cyclin H/MNAT1, sequence (P51946 whole entry, the tested form may be a part): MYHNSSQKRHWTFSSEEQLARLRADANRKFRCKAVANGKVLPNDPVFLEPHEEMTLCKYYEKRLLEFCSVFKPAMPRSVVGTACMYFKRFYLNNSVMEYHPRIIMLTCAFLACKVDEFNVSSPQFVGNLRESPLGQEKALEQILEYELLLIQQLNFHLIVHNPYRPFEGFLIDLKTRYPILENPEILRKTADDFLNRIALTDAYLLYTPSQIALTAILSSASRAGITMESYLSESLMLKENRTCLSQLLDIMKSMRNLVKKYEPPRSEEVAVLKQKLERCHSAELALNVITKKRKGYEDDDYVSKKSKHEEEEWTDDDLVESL
CDK7/Cyclin H/MNAT1, sequence (P50613 whole entry, the tested form may be a part): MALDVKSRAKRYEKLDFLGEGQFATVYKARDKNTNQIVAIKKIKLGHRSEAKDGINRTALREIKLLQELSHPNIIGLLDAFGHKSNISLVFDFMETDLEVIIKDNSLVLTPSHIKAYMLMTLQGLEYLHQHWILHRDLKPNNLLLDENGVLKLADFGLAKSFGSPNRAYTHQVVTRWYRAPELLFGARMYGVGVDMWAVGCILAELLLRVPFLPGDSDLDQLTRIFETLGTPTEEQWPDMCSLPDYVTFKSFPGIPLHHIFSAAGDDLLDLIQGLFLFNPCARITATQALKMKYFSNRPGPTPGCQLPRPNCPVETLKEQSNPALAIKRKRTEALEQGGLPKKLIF
CDK7/Cyclin H/MNAT1, sequence (P51948 whole entry, further chain, the tested form may be a part): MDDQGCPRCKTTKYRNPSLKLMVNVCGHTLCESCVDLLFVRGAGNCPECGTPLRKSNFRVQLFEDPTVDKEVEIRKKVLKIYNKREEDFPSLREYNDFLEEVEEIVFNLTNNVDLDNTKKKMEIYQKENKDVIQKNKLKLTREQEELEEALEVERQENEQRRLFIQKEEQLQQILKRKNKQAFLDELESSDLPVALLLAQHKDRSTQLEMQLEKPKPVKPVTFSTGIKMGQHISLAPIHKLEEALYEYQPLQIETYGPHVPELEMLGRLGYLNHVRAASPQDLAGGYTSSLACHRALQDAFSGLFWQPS

CDK9/cyclin T1 = CDK9/cyclin T1 (Homo sapiens, UniProt P50750); experiment: as §1, with “of full-length” for “of”, “recombinant N-terminal GST-tagged” for “recombinant”, “CDK9 (1 to 372 residues)/His-tagged cyclinT1 (1 to 726 residues)” for “His-tagged CDK7/cyclin H/MNAT1”
CDK9/cyclin T1, sequence (O60563 whole entry, the tested form may be a part): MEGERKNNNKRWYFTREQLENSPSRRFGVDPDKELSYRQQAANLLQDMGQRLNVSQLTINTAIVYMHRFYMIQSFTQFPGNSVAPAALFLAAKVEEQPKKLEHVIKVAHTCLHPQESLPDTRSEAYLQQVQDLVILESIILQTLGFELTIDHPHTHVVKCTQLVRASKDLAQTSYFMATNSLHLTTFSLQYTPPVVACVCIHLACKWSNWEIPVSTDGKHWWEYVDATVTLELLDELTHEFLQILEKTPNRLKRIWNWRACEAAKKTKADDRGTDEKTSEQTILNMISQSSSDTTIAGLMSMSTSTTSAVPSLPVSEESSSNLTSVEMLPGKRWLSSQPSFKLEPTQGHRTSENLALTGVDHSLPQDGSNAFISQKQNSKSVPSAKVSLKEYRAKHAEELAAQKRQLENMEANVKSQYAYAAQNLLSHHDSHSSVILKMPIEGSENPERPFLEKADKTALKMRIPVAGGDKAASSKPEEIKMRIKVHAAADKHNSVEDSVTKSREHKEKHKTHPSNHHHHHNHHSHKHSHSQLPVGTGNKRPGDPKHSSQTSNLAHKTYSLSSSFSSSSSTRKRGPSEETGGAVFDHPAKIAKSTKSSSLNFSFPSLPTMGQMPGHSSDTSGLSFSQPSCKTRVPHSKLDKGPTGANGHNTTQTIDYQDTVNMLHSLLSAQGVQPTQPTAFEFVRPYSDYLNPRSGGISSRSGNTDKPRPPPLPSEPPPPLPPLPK
CDK9/cyclin T1, sequence (P50750 whole entry, the tested form may be a part): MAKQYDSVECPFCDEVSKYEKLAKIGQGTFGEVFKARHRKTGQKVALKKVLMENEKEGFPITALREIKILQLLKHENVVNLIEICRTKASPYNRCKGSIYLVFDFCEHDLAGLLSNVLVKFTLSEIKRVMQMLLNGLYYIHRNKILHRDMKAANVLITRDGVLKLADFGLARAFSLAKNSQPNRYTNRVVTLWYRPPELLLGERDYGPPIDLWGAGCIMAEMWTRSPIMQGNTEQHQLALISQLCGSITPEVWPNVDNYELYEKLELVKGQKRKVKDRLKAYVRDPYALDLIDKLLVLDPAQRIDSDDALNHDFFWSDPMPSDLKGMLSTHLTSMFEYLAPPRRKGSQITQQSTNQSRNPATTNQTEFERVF

[3] = Metabolic stability in human liver microsomes assessed as half life at 1 uM preincubated with compound for 10 mins followed by beta-NADPH addition measured upto 60 mins by LC-MS/MS analysis; format: ADME, Microsome; settings: time < 70 min
MKN-1 [4] = experiment: Antiproliferative activity against human MKN-1 cells incubated for 5 days by CCK-8 assay; format: functional, cell-based; settings: MKN-1, 120 h
[5] = Metabolic stability in mouse liver microsomes assessed as half life at 1 uM preincubated with compound for 10 mins followed by beta-NADPH addition measured upto 60 mins by LC-MS/MS analysis; format: ADME, Microsome; settings: time < 70 min
MKN-1 [6] = experiment: Induction of cell cycle arrest in human MKN-1 cells assessed as reduction in G2/M phase cells at 111.1 to 333.3 nM incubated for 24 hrs by PI staining based flow cytometry analysis; format: functional; settings: dose 111.1-333.3 nM
[7] = biological target: Cyclin-dependent kinase 2 (Homo sapiens) (UniProt P24941); experiment: Inhibition of CDK2 in human MKN-1 cells assessed as reduction in Rb phosphorylation at Ser807/11 incubated for 24 hrs by Western blotting analysis; format: cell-based; settings: dose 37-3000 nM
[8] = biological target: Cyclin-dependent kinase 2 (Homo sapiens) (UniProt P24941); experiment: Inhibition of CDK2 in human MKN-1 cells assessed as reduction in Rb phosphorylation at Ser780 incubated for 24 hrs by Western blotting analysis; format: cell-based; settings: dose 37-3000 nM
MKN-1 [9] = experiment: Induction of cell cycle arrest in human MKN-1 cells assessed as accumulation of cells at G0/G1 phase at 111.1 to 333.3 nM incubated for 24 hrs by PI staining based flow cytometry analysis; format: functional; settings: dose 111.1-333.3 nM
[10] = Drug uptake in CD1 mouse plasma at 10 mg/kg, po measured upto 24 hrs by LC-MS/MS analysis; format: ADME, organism-based; settings: in vivo
[11] = Clearance in CD1 mouse plasma at 1 mg/kg, iv measured upto 24 hrs by LC-MS/MS analysis; format: ADME, organism-based
[12] = biological target: Cyclin-dependent kinase 7 (Homo sapiens) (UniProt P50613); experiment: Inhibition of CDK7 (unknown origin) at 1 uM
Cyclin-dependent kinase 7 (Homo sapiens), sequence (P50613 whole entry): as the sequence (P50613 whole entry, the tested form may be a part) above

[13] = biological target: Cyclin-dependent kinase 9 (Homo sapiens) (UniProt P50750); experiment: Inhibition of CDK9 (unknown origin) at 1 uM
Cyclin-dependent kinase 9 (Homo sapiens), sequence (P50750 whole entry): as the sequence (P50750 whole entry, the tested form may be a part) above

[14] = biological target: Cyclin-dependent kinase 12 (Homo sapiens) (UniProt Q9NYV4); experiment: Inhibition of CDK12 (unknown origin) at 1 uM
Cyclin-dependent kinase 12 (Homo sapiens), sequence (Q9NYV4 whole entry, looked up): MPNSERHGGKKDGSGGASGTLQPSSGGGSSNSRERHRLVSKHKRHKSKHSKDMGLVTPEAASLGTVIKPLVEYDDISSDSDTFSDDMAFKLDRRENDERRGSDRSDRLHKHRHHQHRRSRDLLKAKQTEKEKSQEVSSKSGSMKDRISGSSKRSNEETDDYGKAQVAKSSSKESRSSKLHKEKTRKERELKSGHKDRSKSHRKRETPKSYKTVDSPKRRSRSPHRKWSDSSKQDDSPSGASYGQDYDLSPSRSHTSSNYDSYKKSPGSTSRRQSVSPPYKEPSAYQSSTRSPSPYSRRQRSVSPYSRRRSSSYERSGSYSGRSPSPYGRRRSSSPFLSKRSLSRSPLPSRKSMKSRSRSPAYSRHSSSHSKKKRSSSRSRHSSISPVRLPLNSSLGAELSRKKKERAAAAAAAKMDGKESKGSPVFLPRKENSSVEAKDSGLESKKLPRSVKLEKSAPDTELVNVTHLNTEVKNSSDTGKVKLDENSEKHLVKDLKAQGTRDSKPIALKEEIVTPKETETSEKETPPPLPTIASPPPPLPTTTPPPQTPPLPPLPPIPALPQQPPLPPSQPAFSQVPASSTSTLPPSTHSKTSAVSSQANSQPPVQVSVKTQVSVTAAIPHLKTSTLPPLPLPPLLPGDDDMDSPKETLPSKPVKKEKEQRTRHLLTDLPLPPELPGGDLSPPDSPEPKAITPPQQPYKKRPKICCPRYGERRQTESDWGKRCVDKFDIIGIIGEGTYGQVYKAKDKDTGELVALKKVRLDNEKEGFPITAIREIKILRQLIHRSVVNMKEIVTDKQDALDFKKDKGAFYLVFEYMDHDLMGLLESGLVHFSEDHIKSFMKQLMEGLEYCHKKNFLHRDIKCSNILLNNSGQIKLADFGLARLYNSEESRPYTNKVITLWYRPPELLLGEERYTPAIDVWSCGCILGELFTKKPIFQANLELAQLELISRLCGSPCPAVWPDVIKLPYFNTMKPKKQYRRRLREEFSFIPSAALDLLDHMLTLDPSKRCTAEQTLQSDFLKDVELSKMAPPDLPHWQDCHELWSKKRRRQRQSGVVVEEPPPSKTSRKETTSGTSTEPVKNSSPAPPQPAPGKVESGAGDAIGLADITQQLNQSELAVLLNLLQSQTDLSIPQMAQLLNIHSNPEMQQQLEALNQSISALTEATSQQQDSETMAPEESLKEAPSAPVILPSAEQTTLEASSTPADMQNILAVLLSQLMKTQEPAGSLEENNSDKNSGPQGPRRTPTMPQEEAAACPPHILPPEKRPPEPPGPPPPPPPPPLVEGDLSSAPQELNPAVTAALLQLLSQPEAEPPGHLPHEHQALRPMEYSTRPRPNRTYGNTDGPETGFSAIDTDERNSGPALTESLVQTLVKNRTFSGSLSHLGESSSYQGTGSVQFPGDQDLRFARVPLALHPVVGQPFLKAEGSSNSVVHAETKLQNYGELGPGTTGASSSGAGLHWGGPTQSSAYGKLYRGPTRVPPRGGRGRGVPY

[15] = biological target: CDK12/Cyclin K (Homo sapiens) (UniProt O75909+Q9NYV4); experiment: Inhibition of CDK12/Cyclin K (unknown origin) at 100 nM by HTRF assay; format: protein-complex assay
Homo sapiens = species on record: Homo sapiens; experiment: Inhibition of CDK1/cyclin A2 (unknown origin) at 100 nM by ADP-Glo assay
[16] = biological target: Cyclin-dependent kinase 13 (Homo sapiens) (UniProt Q14004); experiment: Inhibition of CDK13 (unknown origin) at 1 uM
[17] = biological target: Cyclin-dependent kinase 5 (Homo sapiens) (UniProt Q00535); experiment: Inhibition of CDK5 (unknown origin) at 1 uM
Cyclin-dependent kinase 5 (Homo sapiens), sequence (Q00535 whole entry, looked up): as the sequence (Q00535 whole entry) above

[18] = biological target: Cyclin-dependent kinase 1 (Homo sapiens) (UniProt P06493); experiment: Inhibition of CDK1 (unknown origin) at 1 uM
Cyclin-dependent kinase 1 (Homo sapiens), sequence (P06493 whole entry, looked up): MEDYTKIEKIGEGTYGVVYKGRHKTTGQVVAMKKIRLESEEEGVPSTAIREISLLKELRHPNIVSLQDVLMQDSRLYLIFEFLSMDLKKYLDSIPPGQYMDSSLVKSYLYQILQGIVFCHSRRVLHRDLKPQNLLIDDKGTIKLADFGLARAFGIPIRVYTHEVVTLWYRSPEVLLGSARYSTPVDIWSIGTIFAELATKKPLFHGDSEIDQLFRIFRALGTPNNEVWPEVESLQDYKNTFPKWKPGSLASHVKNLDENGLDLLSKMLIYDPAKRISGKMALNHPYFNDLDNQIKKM

`CC(C)c1cnn2c3nc(nc12)N(CC(C)(C)CN)CCCCCOc1ccccc1CN3` gave a pKi [1] of 7.30 and a pKi [2] of 7.22.
In the case of `CC(C)c1cnn2c3nc(nc12)N(C[C@@H]1CNC[C@H]1O)CCCCCOc1ccccc1CN3`, the pKi (CDK7/Cyclin H/MNAT1) was 8.55, the pKi [1] was 9.15 and the pKi [2] was 9.05.
Work on `CC(C)c1cnn2c3nc(nc12)N(CCC1CNC1)CCCCCOc1cc(S(C)(=O)=O)ccc1CN3` yielded a pKi [1] of 7.45.
Work on `CC(C)c1cnn2c3nc(nc12)N(CC1CCCNC1)CCCCCOc1ccccc1CN3` (configuration not stated) yielded a pKi [1] of 7.34 and a pKi [2] of 6.86.
`CC(C)c1cnn2c3nc(nc12)N(CC1CCNCC1)CCCCCOc1ccc(C(F)(F)F)cc1CN3` showed a pKi [1] of 7.03.
Work on `CC(C)c1cnn2c3nc(nc12)N(C1CNC1)CCCCCOc1ccccc1CN3` yielded a pKi [1] of 6.80.
`CC(C)c1cnn2c3nc(nc12)N(CC1CCNCC1)CCCCCOc1ccc(S(C)(=O)=O)cc1CN3` gave a pKi [1] of 7.08.
`CC(C)c1cnn2c3nc(nc12)N(CC1CCNCC1)CCCCCOc1cc(C#N)ccc1CN3` showed a pKi (CDK7/Cyclin H/MNAT1) of 7.36, a pKi [1] of 8.03 and a pKi (CDK9/cyclin T1) of 8.24. The pKi [2] was 8.36.
For `CC(C)c1cnn2c3nc(nc12)N(CC1CNC1)CCCCCOc1ccccc1CN3`, the pKi (CDK7/Cyclin H/MNAT1) was 7.00, the pKi [1] was 8.52 and the half-life at 1 µM [3] was 36.1 min. It also gave a pEC50 (MKN-1 [4]) of 5.47, a pKi (CDK9/cyclin T1) of 7.22 and a half-life at 1 µM [5] of 61.9 min. For the same molecule, the pKi [2] was 7.51.
`CC(C)c1cnn2c3nc(nc12)N(CC1CCNCC1)CCCCCOc1ccc(F)cc1CN3` showed a pKi [1] of 8.51 and a pKi [2] of 8.60.
Molecule `CC(C)c1cnn2c3nc(nc12)N(CC1CCNCC1)CCCCCOc1cc(C(F)(F)F)ccc1CN3` has a pKi (CDK7/Cyclin H/MNAT1) of 6.79, a pKi [1] of 7.82 and a pKi (CDK9/cyclin T1) of 7.36. For the same molecule, the pKi [2] was 7.38.
`CC(C)c1cnn2c3nc(nc12)N(CCC1CNC1)CCCCCOc1ccccc1CN3` showed a pKi [1] of 7.32 and a pKi [2] of 7.54.
In the case of `CC(C)c1cnn2c3nc(nc12)N(CC1CNC1)CCCCCOc1ccc(C#N)cc1CN3`, the pKi [1] was < 6.00.
`CC(C)c1cnn2c3nc(nc12)N(CC1CCNCC1)CCCCCOc1cc(F)c(F)cc1CN3` gave a pKi [1] of 8.54 and a pKi [2] of 8.36.
In the case of `CC(C)c1cnn2c3nc(nc12)N(CC1CCOCC1)CCCCCOc1ccccc1CN3`, the pKi [1] was 6.37.
For `CC(C)c1cnn2c3nc(nc12)N(CC1CNC1)CCCCCOc1ccc(C(F)(F)F)cc1CN3`, the pKi [1] was < 6.00.
In the case of `CC(C)c1cnn2c3nc(nc12)N(CC1CNC1)CCCCCOc1cc(C#N)ccc1CN3`, the pKi [1] was 7.45.
`CC(C)c1cnn2c3nc(nc12)N(CC1CCNC1)CCCCCOc1ccccc1CN3` (configuration not stated) gave a pKi (CDK7/Cyclin H/MNAT1) of 8.02, a pKi [1] of 9.00 and a pKi [2] of 8.44.
In the case of `CC(C)n1cnc2c3nc(nc21)N(CC1CNC1)CCCCCOc1cc(S(C)(=O)=O)ccc1CN3`, the pKi [1] was 8.44, the Activity (MKN-1 [6]) was “Active” and the half-life at 1 µM [3] was 46.2 min. For the same molecule, the pEC50 (MKN-1 [4]) was 6.13, the inhibition [7] was “Dose-Dependent Effect” and the inhibition [8] was “Dose-Dependent Effect”. The Activity (MKN-1 [9]) was “Active”, the Drug uptake [10] was “Not Active” and the half-life at 1 µM [5] was 6.3 min. It also gave a clearance [11] of 159 mL/min/kg.
For `CC(C)c1cnn2c3nc(nc12)N(CC1CCNCC1)CCCCCOc1cc(S(C)(=O)=O)ccc1CN3`, the pKi (CDK7/Cyclin H/MNAT1) was 7.67, the pKi [1] was 8.31 and the pKi (CDK9/cyclin T1) was 8.57. For the same molecule, the pKi [2] was 8.62.
Molecule `CC(C)c1cnn2c3nc(nc12)N(CC1CNC1)CCCCCOc1cc(F)c(F)cc1CN3` has a pKi [1] of 8.47, a pEC50 (MKN-1 [4]) of 5.84 and a half-life at 1 µM [5] of 22 min.
`CC(C)c1cnn2c3nc(nc12)N(CC1CNC1)CCCCCOc1ccc(F)cc1CN3` gave a pKi [1] of 9.00, a pEC50 (MKN-1 [4]) of 6.03 and a half-life at 1 µM [5] of 15.2 min.
In the case of `CC(C)c1cnn2c3nc(nc12)N(CC1CCN(C)CC1)CCCCCOc1ccccc1CN3`, the pKi (CDK7/Cyclin H/MNAT1) was 7.22, the pKi [1] was 8.57 and the pKi (CDK9/cyclin T1) was 7.79. For the same molecule, the pKi [2] was 9.00.
With `CC(C)c1cnn2c3nc(nc12)N(CC1CNC1)CCCCCOc1cc(S(C)(=O)=O)ccc1CN3` the inhibition [12] was “Active”, the pKi [1] was 9.00 and the inhibition [13] was “Active”. The inhibition [14] was “Active”, the Activity (MKN-1 [6]) was “Active” and the half-life at 1 µM [3] was 122 min. For the same molecule, the pEC50 (MKN-1 [4]) was 6.51, the inhibition [15] was “Active” and the inhibition [7] was “Dose-Dependent Effect”. The inhibition [8] was “Dose-Dependent Effect”, the inhibition (Homo sapiens) was “Active” and the Activity (MKN-1 [9]) was “Active”. The Drug uptake [10] was “Not Active”, the half-life at 1 µM [5] was 112 min and the inhibition [16] was “Active”. For the same molecule, the inhibition [17] was “Active”, the inhibition [18] was “Active” and the clearance [11] was 159 mL/min/kg.
`CC(C)c1cnn2c3nc(nc12)N(CC1CNC1)CCCCCOc1cc(C(F)(F)F)ccc1CN3` gave a pKi [1] of 7.81.
